Assay results published in PubChem BioAssay AID330 (DTP/NCI, 2004).
Where “and” joins values, the source holds several entries; their conditions need not be identical. Identical values can stand only once. Toxic doses and inconclusive results are not listed. How the source made its calls: active means survival T/C of 150% or more; inactive means T/C below 125% in these data.

System: P388 leukemia ip, CD2F1 mice, survival T/C
Assay: NCI In Vivo Anticancer Drug Screen. Data for tumor model P388 Leukemia (intraperitoneal) in CD2F1 (CDF1) mice
Conditions: endpoint: median survival time, higher = longer survival
How it was run: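 Mice carrying the transplanted tumor received test compound or vehicle. Survival was recorded in each group, and the value is the treated-group measurement divided by that of the vehicle-treated control group.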

[1] = dose: 60.0 mg/kg/injection, schedule: Q01DX005 (ip), vehicle: Klucel (hydroxypropylcellulose) (HPC)
[2] = dose: 120.0 mg/kg/injection, schedule: Q01DX005 (ip), vehicle: Klucel (hydroxypropylcellulose) (HPC)
[3] = dose: 50.0 mg/kg/injection, schedule: Q01DX005 (ip), vehicle: saline with Tween-80
[4] = dose: 100.0 mg/kg/injection, schedule: Q01DX005 (ip), vehicle: saline with Tween-80

Measured: T/C

O=C1C2C3C=CC(C3)C2C(=O)C2(CO)OC12 (configuration not stated)
inactive: dose: 62.5 mg/kg/injection, schedule: Q04DX002 (ip), vehicle: saline 97 % of control | dose: 125.0 mg/kg/injection, schedule: Q04DX002 (ip), vehicle: saline 95 % of control | dose: 250.0 mg/kg/injection, schedule: Q04DX002 (ip), vehicle: saline 97 % of control

Nc1nc(SCC(=O)O)[nH]c(=O)c1NS(=O)(=O)c1ccccc1
inactive: [1] 108 % of control | [2] 109 % of control

COC1/C=C\OC2(C)Oc3c(C)c(O)c4c(O)c(c(CN(C)CCO)c(O)c4c3C2=O)NC(=O)/C(C)=C\C=C/C(C)C(O)C(C)C(O)C(C)C(OC(C)=O)C1C (configuration not stated)
inactive: dose: 12.5 mg/kg/injection, schedule: Q01DX009 (ip), vehicle: Klucel (hydroxypropylcellulose) (HPC) 86 % of control | dose: 25.0 mg/kg/injection, schedule: Q01DX009 (ip), vehicle: Klucel (hydroxypropylcellulose) (HPC) 117 % of control | dose: 50.0 mg/kg/injection, schedule: Q01DX009 (ip), vehicle: Klucel (hydroxypropylcellulose) (HPC) 118 % of control | dose: 100.0 mg/kg/injection, schedule: Q01DX009 (ip), vehicle: Klucel (hydroxypropylcellulose) (HPC) 111 % of control | dose: 200.0 mg/kg/injection, schedule: Q01DX009 (ip), vehicle: Klucel (hydroxypropylcellulose) (HPC) 104 % of control | dose: 400.0 mg/kg/injection, schedule: Q01DX009 (ip), vehicle: Klucel (hydroxypropylcellulose) (HPC) 96 % of control

O=C(Nc1ccc(Cl)cc1)Nc1nnc(-c2cccc(-c3nnc(NC(=O)Nc4ccc(Cl)cc4)o3)c2)o1
inactive: [1] 94 % of control | [2] 96 % of control | dose: 240.0 mg/kg/injection, schedule: Q01DX005 (ip), vehicle: Klucel (hydroxypropylcellulose) (HPC) 97 % of control

CCCCOC(=O)C1(N)CCCC1
inactive: dose: 100.0 mg/kg/injection, schedule: Q04DX003 (ip), vehicle: saline 100 % of control | dose: 200.0 mg/kg/injection, schedule: Q04DX003 (ip), vehicle: saline 109 % of control

Nc1ccccc1C(=O)CCc1ccccc1C(=O)O
inactive: [3] 96 % of control | [4] 99 % of control | dose: 200.0 mg/kg/injection, schedule: Q01DX005 (ip), vehicle: saline with Tween-80 96 % of control

O=C(NCCN1CCOCC1)Nc1ccc2c(c1)OCCOCCOCCOCCO2
inactive: dose: 60.0 mg/kg/injection, schedule: Q01DX005 (ip), vehicle: saline 105 % of control | dose: 120.0 mg/kg/injection, schedule: Q01DX005 (ip), vehicle: saline 102 % of control | dose: 240.0 mg/kg/injection, schedule: Q01DX005 (ip), vehicle: saline 99 % of control

CCCCCC(CN(C)C)C(=O)/C=C/c1ccc(C)cc1 (configuration not stated)
inactive: dose: 12.5 mg/kg/injection, schedule: Q01DX005 (ip), vehicle: saline with Tween-80 98 % of control | dose: 25.0 mg/kg/injection, schedule: Q01DX005 (ip), vehicle: saline with Tween-80 100 % of control | [3] 106 % of control and 97 % of control | [4] 98 % of control

COc1cc2c(c3oc4c(O)cccc4c(=O)c13)CC(C(C)(O)CO)O2 (configuration not stated)
inactive: dose: 3.5 mg/kg/injection, schedule: Q01DX005 (ip), vehicle: Klucel (hydroxypropylcellulose) (HPC) 105 % of control | dose: 7.0 mg/kg/injection, schedule: Q01DX005 (ip), vehicle: Klucel (hydroxypropylcellulose) (HPC) 96 % of control | dose: 14.0 mg/kg/injection, schedule: Q01DX005 (ip), vehicle: Klucel (hydroxypropylcellulose) (HPC) 96 % of control | dose: 28.0 mg/kg/injection, schedule: Q01DX005 (ip), vehicle: Klucel (hydroxypropylcellulose) (HPC) 92 % of control

COc1c(O)ccc([N+](=O)[O-])c1OC
inactive: dose: 12.5 mg/kg/injection, schedule: Q01DX009 (ip), vehicle: other 96 % of control | dose: 25.0 mg/kg/injection, schedule: Q01DX009 (ip), vehicle: other 98 % of control | dose: 50.0 mg/kg/injection, schedule: Q01DX009 (ip), vehicle: other 105 % of control | dose: 100.0 mg/kg/injection, schedule: Q01DX009 (ip), vehicle: other 102 % of control | dose: 200.0 mg/kg/injection, schedule: Q01DX009 (ip), vehicle: other 97 % of control

CCCCN=NN/C=C/C(C)(C)C
inactive: [3] 115 % of control

O=C1c2cccc(O)c2C(=O)c2c(OC3OC(CO)C(OC4OC(CO)C(O)C(O)C4O)C(O)C3O)cccc21 (configuration not stated)
inactive: dose: 12.5 mg/kg/injection, schedule: Q04DX003 (ip), vehicle: saline with Tween-80 100 % of control | dose: 25.0 mg/kg/injection, schedule: Q04DX003 (ip), vehicle: saline with Tween-80 100 % of control | dose: 50.0 mg/kg/injection, schedule: Q01DX009 (ip), vehicle: saline 104 % of control | dose: 50.0 mg/kg/injection, schedule: Q04DX003 (ip), vehicle: saline with Tween-80 99 % of control | dose: 100.0 mg/kg/injection, schedule: Q01DX009 (ip), vehicle: saline 107 % of control | dose: 200.0 mg/kg/injection, schedule: Q01DX009 (ip), vehicle: saline 102 % of control
